Measurements reported in ChEMBL document CHEMBL1697781, “Assessment of the health effects of chemicals in humans: II. Construction of an adverse effects database for QSAR modeling” (Curr Drug Discov Technol, 2004).

Columns and labels:
Settings in all cases: human
Hepatotoxicity [1] = test: FDA HLAED, serum glutamic oxaloacetic transaminase (SGOT) increase
Hepatotoxicity [2] = test: FDA HLAED, liver enzyme composite activity
Hepatotoxicity [3] = test: FDA HLAED, lactate dehydrogenase (LDH) increase
Hepatotoxicity [4] = test: FDA HLAED, serum glutamic pyruvic transaminase (SGPT) increase
Hepatotoxicity [5] = test: FDA HLAED, gamma-glutamyl transferase (GGT) increase
Hepatotoxicity [6] = test: FDA HLAED, alkaline phosphatase increase
Throughout, for GGT Increase - Index Value: reference of the scale not given here.
Throughout, for LDH Increase - Index Value: reference of the scale not given here.

## CCn1cc(C(=O)O)c(=O)c2cc(F)c(N3CCNCC3)nc21 [ENOXACIN]
Hepatotoxicity [1]
  SGOT Increase - Activity Score: Inactive
  SGOT Increase - Index Value: 0
  SGOT Increase - Number of Reports: < 4
Hepatotoxicity [2]
  Composite Activity - Active: 0
  Composite Activity - Marginal: 0
  Composite Activity - Score: Inactive
Hepatotoxicity [3]
  LDH Increase - Activity Score: Inactive
  LDH Increase - Index Value: 0
  LDH Increase - Number of Reports: < 4
Hepatotoxicity [4]
  SGPT Increase - Activity Score: Inactive
  SGPT Increase - Index Value: 0
  SGPT Increase - Number of Reports: < 4
Hepatotoxicity [5]
  GGT Increase - Activity Score: Inactive
  GGT Increase - Index Value: 0
  GGT Increase - Number of Reports: < 4
Hepatotoxicity [6]
  Alkaline Phosphatase Increase - Activity Score: Inactive
  Alkaline Phosphatase Increase - Index Value: 0
  Alkaline Phosphatase Increase - Number of Reports: < 4

## CCCCC[C@H](O)/C=C/[C@@H]1[C@H]2C/C(=C/CCCC(=O)O)O[C@H]2C[C@H]1O [EPOPROSTENOL]
Hepatotoxicity [1]
  SGOT Increase - Activity Score: Inactive
  SGOT Increase - Index Value: 0
  SGOT Increase - Number of Reports: < 4
Hepatotoxicity [2]
  Composite Activity - Active: 0
  Composite Activity - Marginal: 0
  Composite Activity - Score: Inactive
Hepatotoxicity [3]
  LDH Increase - Activity Score: Inactive
  LDH Increase - Index Value: 0
  LDH Increase - Number of Reports: < 4
Hepatotoxicity [4]
  SGPT Increase - Activity Score: Inactive
  SGPT Increase - Index Value: 0
  SGPT Increase - Number of Reports: < 4
Hepatotoxicity [5]
  GGT Increase - Activity Score: Inactive
  GGT Increase - Index Value: 0
  GGT Increase - Number of Reports: < 4
Hepatotoxicity [6]
  Alkaline Phosphatase Increase - Activity Score: Inactive
  Alkaline Phosphatase Increase - Index Value: 0
  Alkaline Phosphatase Increase - Number of Reports: < 4

## COC(=O)CCc1ccc(OCC(O)CNC(C)C)cc1 (stereo unspecified) [ESMOLOL]
Hepatotoxicity [1]
  SGOT Increase - Activity Score: Inactive
  SGOT Increase - Index Value: 4.6
  SGOT Increase - Number of Reports: < 4
Hepatotoxicity [2]
  Composite Activity - Active: 0
  Composite Activity - Marginal: 0
  Composite Activity - Score: Inactive
Hepatotoxicity [3]
  LDH Increase - Activity Score: Inactive
  LDH Increase - Index Value: 4.6
  LDH Increase - Number of Reports: < 4
Hepatotoxicity [4]
  SGPT Increase - Activity Score: Inactive
  SGPT Increase - Index Value: 0
  SGPT Increase - Number of Reports: < 4
Hepatotoxicity [5]
  GGT Increase - Activity Score: Inactive
  GGT Increase - Index Value: 0
  GGT Increase - Number of Reports: < 4
Hepatotoxicity [6]
  Alkaline Phosphatase Increase - Activity Score: Inactive
  Alkaline Phosphatase Increase - Index Value: 0
  Alkaline Phosphatase Increase - Number of Reports: < 4

## Clc1ccc2c(c1)C(c1ccccc1)=NCc1nncn1-2 [ESTAZOLAM]
Hepatotoxicity [1]
  SGOT Increase - Activity Score: Inactive
  SGOT Increase - Index Value: 0.8
  SGOT Increase - Number of Reports: < 4
Hepatotoxicity [2]
  Composite Activity - Active: 0
  Composite Activity - Marginal: 0
  Composite Activity - Score: Inactive
Hepatotoxicity [3]
  LDH Increase - Activity Score: Inactive
  LDH Increase - Index Value: 0
  LDH Increase - Number of Reports: < 4
Hepatotoxicity [4]
  SGPT Increase - Activity Score: Inactive
  SGPT Increase - Index Value: 0.8
  SGPT Increase - Number of Reports: < 4
Hepatotoxicity [5]
  GGT Increase - Activity Score: Inactive
  GGT Increase - Index Value: 0.8
  GGT Increase - Number of Reports: < 4
Hepatotoxicity [6]
  Alkaline Phosphatase Increase - Activity Score: Inactive
  Alkaline Phosphatase Increase - Index Value: 0
  Alkaline Phosphatase Increase - Number of Reports: < 4

## C[C@]12CC[C@@H]3c4ccc(OC(=O)c5ccccc5)cc4CC[C@H]3[C@@H]1CC[C@@H]2O [ESTRADIOL BENZOATE]
Hepatotoxicity [1]
  SGOT Increase - Activity Score: Inactive
  SGOT Increase - Index Value: 2.8
  SGOT Increase - Number of Reports: >= 4
Hepatotoxicity [2]
  Composite Activity - Active: 0
  Composite Activity - Marginal: 0
  Composite Activity - Score: Inactive
Hepatotoxicity [3]
  LDH Increase - Activity Score: Inactive
  LDH Increase - Index Value: 1.2
  LDH Increase - Number of Reports: >= 4
Hepatotoxicity [4]
  SGPT Increase - Activity Score: Inactive
  SGPT Increase - Index Value: 2.1
  SGPT Increase - Number of Reports: >= 4
Hepatotoxicity [5]
  GGT Increase - Activity Score: Inactive
  GGT Increase - Index Value: 0.3
  GGT Increase - Number of Reports: < 4
Hepatotoxicity [6]
  Alkaline Phosphatase Increase - Activity Score: Inactive
  Alkaline Phosphatase Increase - Index Value: 1.5
  Alkaline Phosphatase Increase - Number of Reports: >= 4

## C[C@]12CC[C@@H]3c4ccc(O)cc4CC[C@H]3[C@@H]1CC[C@@H]2OC(=O)CCC1CCCC1 [ESTRADIOL CYPIONATE]
Hepatotoxicity [1]
  SGOT Increase - Activity Score: Inactive
  SGOT Increase - Index Value: 2.8
  SGOT Increase - Number of Reports: >= 4
Hepatotoxicity [2]
  Composite Activity - Active: 0
  Composite Activity - Marginal: 0
  Composite Activity - Score: Inactive
Hepatotoxicity [3]
  LDH Increase - Activity Score: Inactive
  LDH Increase - Index Value: 1.2
  LDH Increase - Number of Reports: >= 4
Hepatotoxicity [4]
  SGPT Increase - Activity Score: Inactive
  SGPT Increase - Index Value: 2.1
  SGPT Increase - Number of Reports: >= 4
Hepatotoxicity [5]
  GGT Increase - Activity Score: Inactive
  GGT Increase - Index Value: 0.3
  GGT Increase - Number of Reports: < 4
Hepatotoxicity [6]
  Alkaline Phosphatase Increase - Activity Score: Inactive
  Alkaline Phosphatase Increase - Index Value: 1.5
  Alkaline Phosphatase Increase - Number of Reports: >= 4

## CCC(=O)Oc1ccc2c(c1)CC[C@@H]1[C@@H]2CC[C@]2(C)[C@@H](OC(=O)CC)CC[C@@H]12 [ESTRADIOL DIPROPIONATE]
Hepatotoxicity [1]
  SGOT Increase - Activity Score: Inactive
  SGOT Increase - Index Value: 2.8
  SGOT Increase - Number of Reports: >= 4
Hepatotoxicity [2]
  Composite Activity - Active: 0
  Composite Activity - Marginal: 0
  Composite Activity - Score: Inactive
Hepatotoxicity [3]
  LDH Increase - Activity Score: Inactive
  LDH Increase - Index Value: 1.2
  LDH Increase - Number of Reports: >= 4
Hepatotoxicity [4]
  SGPT Increase - Activity Score: Inactive
  SGPT Increase - Index Value: 2.1
  SGPT Increase - Number of Reports: >= 4
Hepatotoxicity [5]
  GGT Increase - Activity Score: Inactive
  GGT Increase - Index Value: 0.3
  GGT Increase - Number of Reports: < 4
Hepatotoxicity [6]
  Alkaline Phosphatase Increase - Activity Score: Inactive
  Alkaline Phosphatase Increase - Index Value: 1.5
  Alkaline Phosphatase Increase - Number of Reports: >= 4

## CCCCCCC(=O)O[C@H]1CC[C@H]2[C@@H]3CCc4cc(O)ccc4[C@H]3CC[C@]12C [ESTRADIOL ENANTHATE]
Hepatotoxicity [1]
  SGOT Increase - Activity Score: Inactive
  SGOT Increase - Index Value: 2.8
  SGOT Increase - Number of Reports: >= 4
Hepatotoxicity [2]
  Composite Activity - Active: 0
  Composite Activity - Marginal: 0
  Composite Activity - Score: Inactive
Hepatotoxicity [3]
  LDH Increase - Activity Score: Inactive
  LDH Increase - Index Value: 1.2
  LDH Increase - Number of Reports: >= 4
Hepatotoxicity [4]
  SGPT Increase - Activity Score: Inactive
  SGPT Increase - Index Value: 2.1
  SGPT Increase - Number of Reports: >= 4
Hepatotoxicity [5]
  GGT Increase - Activity Score: Inactive
  GGT Increase - Index Value: 0.3
  GGT Increase - Number of Reports: < 4
Hepatotoxicity [6]
  Alkaline Phosphatase Increase - Activity Score: Inactive
  Alkaline Phosphatase Increase - Index Value: 1.5
  Alkaline Phosphatase Increase - Number of Reports: >= 4

## C[C@]12CC[C@@H]3c4ccc(OC(=O)Cc5ccc(N(CCCl)CCCl)cc5)cc4CC[C@H]3[C@@H]1CC[C@@H]2OC(=O)Cc1ccc(N(CCCl)CCCl)cc1 [ESTRADIOL MUSTARD]
Hepatotoxicity [1]
  SGOT Increase - Activity Score: Inactive
  SGOT Increase - Index Value: 0
  SGOT Increase - Number of Reports: < 4
Hepatotoxicity [2]
  Composite Activity - Active: 0
  Composite Activity - Marginal: 0
  Composite Activity - Score: Inactive
Hepatotoxicity [3]
  LDH Increase - Activity Score: Inactive
  LDH Increase - Index Value: 0
  LDH Increase - Number of Reports: < 4
Hepatotoxicity [4]
  SGPT Increase - Activity Score: Inactive
  SGPT Increase - Index Value: 0
  SGPT Increase - Number of Reports: < 4
Hepatotoxicity [5]
  GGT Increase - Activity Score: Inactive
  GGT Increase - Index Value: 0
  GGT Increase - Number of Reports: < 4
Hepatotoxicity [6]
  Alkaline Phosphatase Increase - Activity Score: Inactive
  Alkaline Phosphatase Increase - Index Value: 0
  Alkaline Phosphatase Increase - Number of Reports: < 4

## CCCCCCCCCCC(=O)O[C@H]1CC[C@H]2[C@@H]3CCc4cc(O)ccc4[C@H]3CC[C@]12C [ESTRADIOL UNDECYLATE]
Hepatotoxicity [1]
  SGOT Increase - Activity Score: Inactive
  SGOT Increase - Index Value: 2.8
  SGOT Increase - Number of Reports: >= 4
Hepatotoxicity [2]
  Composite Activity - Active: 0
  Composite Activity - Marginal: 0
  Composite Activity - Score: Inactive
Hepatotoxicity [3]
  LDH Increase - Activity Score: Inactive
  LDH Increase - Index Value: 1.2
  LDH Increase - Number of Reports: >= 4
Hepatotoxicity [4]
  SGPT Increase - Activity Score: Inactive
  SGPT Increase - Index Value: 2.1
  SGPT Increase - Number of Reports: >= 4
Hepatotoxicity [5]
  GGT Increase - Activity Score: Inactive
  GGT Increase - Index Value: 0.3
  GGT Increase - Number of Reports: < 4
Hepatotoxicity [6]
  Alkaline Phosphatase Increase - Activity Score: Inactive
  Alkaline Phosphatase Increase - Index Value: 1.5
  Alkaline Phosphatase Increase - Number of Reports: >= 4

## CCCCC(=O)O[C@H]1CC[C@H]2[C@@H]3CCc4cc(O)ccc4[C@H]3CC[C@]12C [ESTRADIOL VALERATE]
Hepatotoxicity [1]
  SGOT Increase - Activity Score: Inactive
  SGOT Increase - Index Value: 2.8
  SGOT Increase - Number of Reports: >= 4
Hepatotoxicity [2]
  Composite Activity - Active: 0
  Composite Activity - Marginal: 0
  Composite Activity - Score: Inactive
Hepatotoxicity [3]
  LDH Increase - Activity Score: Inactive
  LDH Increase - Index Value: 1.2
  LDH Increase - Number of Reports: >= 4
Hepatotoxicity [4]
  SGPT Increase - Activity Score: Inactive
  SGPT Increase - Index Value: 2.1
  SGPT Increase - Number of Reports: >= 4
Hepatotoxicity [5]
  GGT Increase - Activity Score: Inactive
  GGT Increase - Index Value: 0.3
  GGT Increase - Number of Reports: < 4
Hepatotoxicity [6]
  Alkaline Phosphatase Increase - Activity Score: Inactive
  Alkaline Phosphatase Increase - Index Value: 1.5
  Alkaline Phosphatase Increase - Number of Reports: >= 4

## C[C@]12CC[C@@H]3c4ccc(O)cc4CC[C@H]3[C@@H]1CC[C@@H]2O [ESTRADIOL]
Hepatotoxicity [1]
  SGOT Increase - Activity Score: Inactive
  SGOT Increase - Index Value: 2.8
  SGOT Increase - Number of Reports: >= 4
Hepatotoxicity [2]
  Composite Activity - Active: 0
  Composite Activity - Marginal: 0
  Composite Activity - Score: Inactive
Hepatotoxicity [3]
  LDH Increase - Activity Score: Inactive
  LDH Increase - Index Value: 1.2
  LDH Increase - Number of Reports: >= 4
Hepatotoxicity [4]
  SGPT Increase - Activity Score: Inactive
  SGPT Increase - Index Value: 2.1
  SGPT Increase - Number of Reports: >= 4
Hepatotoxicity [5]
  GGT Increase - Activity Score: Inactive
  GGT Increase - Index Value: 0.3
  GGT Increase - Number of Reports: < 4
Hepatotoxicity [6]
  Alkaline Phosphatase Increase - Activity Score: Inactive
  Alkaline Phosphatase Increase - Index Value: 1.5
  Alkaline Phosphatase Increase - Number of Reports: >= 4
